Results taken from the NIST ThermoML archive (doi:10.1021/je1002237).

Assay: xn = mol fraction of the nth substance listed
Conditions: 101 kPa, Liquid

CCOS(=O)(=O)[O-].CCn1cc[n+](C)c1 [1-ethyl-3-methylimidazolium ethyl sulfate] + CC1COC(=O)O1
x2 = 0
Conditions | mass density [kg/m3]
278.15 K | 1251.04
283.15 K | 1247.5
288.15 K | 1244.04
293.15 K | 1240.66
298.15 K | 1237.27
303.15 K | 1233.89
308.15 K | 1230.51

CCOS(=O)(=O)[O-].CCn1cc[n+](C)c1 [1-ethyl-3-methylimidazolium ethyl sulfate] + CC#N
mass density [kg/m3]
Conditions | 278.15 K | 283.15 K | 288.15 K | 293.15 K | 298.15 K | 303.15 K | 308.15 K
x2 = 0 | 1251.04 | 1247.5 | 1244.04 | 1240.66 | 1237.27 | 1233.89 | 1230.51
x2 = 0.0051 | 1250.84 | 1247.29 | 1243.84 | 1240.44 | 1237.06 | 1233.68 | 1230.3
x2 = 0.0099 | 1250 | 1246.45 | 1243.01 | 1239.61 | 1236.22 | 1232.83 | 1229.45
x2 = 0.0202 | 1249.09 | 1245.54 | 1242.11 | 1238.69 | 1235.31 | 1231.91 | 1228.53
x2 = 0.0499 | 1245.66 | 1242.09 | 1238.68 | 1235.26 | 1231.85 | 1228.44 | 1225.03
x2 = 0.1001 | 1239.88 | 1236.38 | 1232.93 | 1229.48 | 1226.04 | 1222.6 | 1219.16
x2 = 0.1426 | 1236.22 | 1232.77 | 1229.28 | 1225.81 | 1222.35 | 1218.9 | 1215.45
x2 = 0.2507 | 1218.64 | 1215.07 | 1211.5 | 1207.95 | 1204.39 | 1200.86 | 1197.33
x2 = 0.3434 | 1202.08 | 1198.44 | 1194.79 | 1191.15 | 1187.54 | 1183.93 | 1180.33
x2 = 0.4592 | 1177.36 | 1173.6 | 1169.85 | 1166.12 | 1162.39 | 1158.68 | 1154.98
x2 = 0.5799 | 1140.91 | 1137 | 1133.1 | 1129.22 | 1125.35 | 1121.49 | 1117.63
x2 = 0.679 | 1101.24 | 1097.17 | 1093.12 | 1089.08 | 1085.03 | 1081 | 1076.97
x2 = 0.7423 | 1068.73 | 1064.52 | 1060.33 | 1056.15 | 1051.97 | 1047.8 | 1043.63
x2 = 0.7865 | 1041.05 | 1036.74 | 1032.43 | 1028.13 | 1023.83 | 1019.53 | 1015.24
x2 = 0.8539 | 988.5 | 983.97 | 979.43 | 974.91 | 970.37 | 965.84 | 961.31
x2 = 0.897 | 945.89 | 941.18 | 936.47 | 931.76 | 927.04 | 922.31 | 917.58
x2 = 0.9342 | 902.15 | 897.28 | 892.39 | 887.47 | 882.61 | 877.89 | 873.12
x2 = 0.9567 | 871.14 | 866.13 | 861.1 | 856.07 | 851.01 | 845.95 | 840.87
x2 = 0.9707 | 849.53 | 844.43 | 839.31 | 834.19 | 829.04 | 823.87 | 818.69
x2 = 0.9803 | 833.78 | 828.62 | 823.44 | 818.24 | 813.02 | 807.78 | 802.52
x2 = 0.9872 | 821.79 | 816.57 | 811.34 | 806.09 | 800.81 | 795.52 | 790.19
x2 = 0.9925 | 812.49 | 807.23 | 801.95 | 796.67 | 791.34 | 786 | 780.62
x2 = 0.9967 | 804.39 | 799.09 | 793.78 | 788.44 | 783.08 | 777.69 | 772.28

CCOS(=O)(=O)[O-].CCn1cc[n+](C)c1 [1-ethyl-3-methylimidazolium ethyl sulfate] + CC(C)=O
mass density [kg/m3]
Conditions | 278.15 K | 283.15 K | 288.15 K | 293.15 K | 298.15 K | 303.15 K | 308.15 K
x2 = 0 | 1251.04 | 1247.5 | 1244.04 | 1240.66 | 1237.27 | 1233.89 | 1230.51
x2 = 0.0048 | 1250.35 | 1246.8 | 1243.35 | 1239.97 | 1236.57 | 1233.18 | 1229.8
x2 = 0.0098 | 1249.71 | 1246.16 | 1242.72 | 1239.31 | 1235.93 | 1232.54 | 1229.15
x2 = 0.015 | 1248.99 | 1245.43 | 1242 | 1238.59 | 1235.2 | 1231.8 | 1228.41
x2 = 0.0249 | 1247.95 | 1244.39 | 1240.97 | 1237.55 | 1234.16 | 1230.76 | 1227.37
x2 = 0.0399 | 1245.49 | 1241.93 | 1238.51 | 1235.1 | 1231.67 | 1228.26 | 1224.86
x2 = 0.06 | 1242.52 | 1238.99 | 1235.56 | 1232.12 | 1228.69 | 1225.26 | 1221.85
x2 = 0.0799 | 1239.64 | 1236.15 | 1232.7 | 1229.24 | 1225.79 | 1222.35 | 1218.92
x2 = 0.1002 | 1236.48 | 1233.02 | 1229.54 | 1226.07 | 1222.61 | 1219.16 | 1215.71
x2 = 0.1501 | 1228.75 | 1225.24 | 1221.72 | 1218.21 | 1214.71 | 1211.21 | 1207.73
x2 = 0.2066 | 1218.26 | 1214.69 | 1211.11 | 1207.54 | 1204 | 1200.46 | 1196.93
x2 = 0.2998 | 1200.04 | 1196.37 | 1192.71 | 1189.06 | 1185.43 | 1181.81 | 1178.19
x2 = 0.3999 | 1176.43 | 1172.65 | 1168.88 | 1165.13 | 1161.39 | 1157.66 | 1153.94
x2 = 0.5 | 1146.24 | 1142.32 | 1138.42 | 1134.53 | 1130.65 | 1126.78 | 1122.92
x2 = 0.6 | 1109.44 | 1105.35 | 1101.27 | 1097.2 | 1093.15 | 1089.1 | 1085.07
x2 = 0.7 | 1062.54 | 1058.23 | 1053.92 | 1049.61 | 1045.32 | 1041.02 | 1036.74
x2 = 0.8 | 1001.65 | 997.03 | 992.4 | 987.78 | 983.15 | 978.52 | 973.88
x2 = 0.9003 | 920.34 | 915.32 | 910.28 | 905.21 | 900.15 | 895.06 | 889.95
x2 = 0.95 | 869.49 | 864.22 | 858.92 | 853.61 | 848.26 | 842.89 | 837.49

CCOS(=O)(=O)[O-].CCn1cc[n+](C)c1 [1-ethyl-3-methylimidazolium ethyl sulfate] + CCO
mass density [kg/m3]
Conditions | 278.15 K | 283.15 K | 288.15 K | 293.15 K | 298.15 K | 303.15 K | 308.15 K
x2 = 0 | 1251.4 | 1247.84 | 1244.39 | 1241.01 | 1237.63 | 1234.24 | 1230.87
x2 = 0.016 | 1249.64 | 1246.08 | 1242.65 | 1239.25 | 1235.85 | 1232.45 | 1229.05
x2 = 0.0254 | 1248.22 | 1244.65 | 1241.24 | 1237.84 | 1234.43 | 1231.03 | 1227.63
x2 = 0.0425 | 1246.12 | 1242.58 | 1239.16 | 1235.76 | 1232.34 | 1228.94 | 1225.53
x2 = 0.0877 | 1240.95 | 1237.47 | 1234.04 | 1230.59 | 1227.18 | 1223.75 | 1220.34
x2 = 0.1178 | 1235.48 | 1232.05 | 1228.59 | 1225.14 | 1221.7 | 1218.26 | 1214.84
x2 = 0.142 | 1231.31 | 1227.85 | 1224.38 | 1220.92 | 1217.47 | 1214.02 | 1210.59
x2 = 0.2344 | 1216.31 | 1212.79 | 1209.28 | 1205.78 | 1202.3 | 1198.83 | 1195.36
x2 = 0.4236 | 1174.57 | 1170.96 | 1167.36 | 1163.79 | 1160.21 | 1156.65 | 1153.1
x2 = 0.6005 | 1116.78 | 1113.06 | 1109.36 | 1105.67 | 1101.99 | 1098.32 | 1094.66
x2 = 0.7305 | 1055.36 | 1051.54 | 1047.72 | 1043.92 | 1040.12 | 1036.36 | 1032.55
x2 = 0.833 | 987.08 | 983.14 | 979.21 | 975.3 | 971.37 | 967.46 | 963.54
x2 = 0.9022 | 925.53 | 921.55 | 917.81 | 913.45 | 910.22 | 906.22 | 902.18
x2 = 0.9567 | 863.73 | 860.74 | 856.8 | 851.32 | 848.59 | 844.44 | 840.27
x2 = 0.9846 | 826.39 | 822.21 | 818.01 | 813.81 | 809.59 | 805.36 | 801.09
x2 = 0.9924 | 814.42 | 810.28 | 806.17 | 801.75 | 797.8 | 793.53 | 789.23
x2 = 0.9963 | 808.01 | 803.79 | 799.55 | 795.3 | 791.03 | 786.74 | 782.41
